Data set [1] has as its system K562 cell lysate depleted of biotinylated proteins. The data set is described as follows: Photocatalytic protein labeling with azide-biotin analogs driven by HT178-cpNLuc-179:Ir-9049 in K562 lysate. In kind it is biochemical. Conditions: for light-independent background: 45 minutes incubation; for light-dependent background: LED 455 nm 10 minutes versus bioluminescence 20 minutes. The source says: To evaluate labeling efficiency, samples were collected, resolved on SDS-PAGE, transferred to a nitrocellulose membrane, and analyzed as described in Example 1. Unlike diazirene, light independent as well as light-dependent background was apparent for both LED and bioluminescence. […] These longer-lived intermediates can diffuse further before being quenched by water resulting in overall greater labeling radius and increased light-dependent background.
The aryl-azide-biotin analogs were further evaluated for efficiency and specificity of bioluminescence-triggered photocatalytic protein labeling as well as light-independent background (FIG. 21D). […] Samples were then collected, resolved on SDS-PAGE, transferred to a nitrocellulose membrane, and analyzed as described in Example 1. […] In addition, several substitutions to the phenyl ring increased labeling specificity to different extent likely by impeding the generation-kinetics and/or lifetime of the reactive intermediates resulting with an overall smaller labeling radius.
Subsequently, LED-triggered photocatalytic labeling of the proximal HT178-cpNLuc-179 was detected for all three analogs albeit with high light-dependent background. […] In addition, lifetime of photogenerated reactive intermediates resulted with a range of labeling specificities that would be useful for different applications designed to label a specific protein versus a neighboring environment.
The structures of the vinyl-naphthyl-azide-biotins and vinyl-quinoline-azide-biotins are shown in FIG. 26A, and their syntheses are included in Example 13. Absorbance profiles for 200 μM activatable labels in 2% DMSO were monitored on a SPARK multimode plate reader (FIG. 26 B-C). […] The naphthyl-azide analogs were further evaluated for their capacity to undergo bioluminescence-triggered photocatalytic protein labeling as well as for their light-dependent, light-independent, and catalyst-independent backgrounds (FIG. 26D). […] Bioluminescence was induced upon treatment with 100 μM fluorofurimazine for 20 minutes. To evaluate labeling efficiencies, samples were collected, resolved on SDS-PAGE, transferred to nitrocellulose membranes, and analyzed as described in Example 1. […] Furthermore, a methyl substitution on the vinyl group designed to inhibit Michael addition reduced background, especially for 9615, and increased labeling specificity. This reduced background was generally associated with a blue-shifted absorbance relative to the equivalent vinyl-naphthyl-azide analog.

A short description of data set [2]: Absorbance profile of photoreactive-biotins. The class given is physicochemical. As for the experimental part: Absorbance profiles for 4 mM phenyl-diazirine-biotin and 20-fold lower concentration of phenyl-azide-biotin (i.e., 200 µM) in 8% or 1% DMSO, respectively, were monitored on a SPARK multimode plate reader (FIG. 20B).
Experiments were conducted during development of embodiments herein to explore structural modifications to the phenyl-azide moiety that could decrease the lifetime of its photogenerated intermediates thereby reducing light-dependent background and increasing labeling specificity. Modifications causing red shift absorbance and subsequently lower triplet state energy thereby enabling more efficient bioluminescence-triggered photocatalytic activation were also explored. […]
The structures of the vinyl-naphthyl-azide-biotins and vinyl-quinoline-azide-biotins are shown in FIG. 26A, and their syntheses are included in Example 13. Absorbance profiles for 200 μM activatable labels in 2% DMSO were monitored on a SPARK multimode plate reader (FIG. 26 B-C). […] The naphthyl-azide analogs were further evaluated for their capacity to undergo bioluminescence-triggered photocatalytic protein labeling as well as for their light-dependent, light-independent, and catalyst-independent backgrounds (FIG. 26D). […] To evaluate labeling efficiencies, samples were collected, resolved on SDS-PAGE, transferred to nitrocellulose membranes, and analyzed as described in Example 1. […]

Data set [3] relates to K562 cell lysate depleted of biotinylated proteins. The data set is described as follows: Bioluminescence-triggered photocatalytic protein labeling with diazirine-biotin in K562 lysate. The class given is biochemical. As for the experimental part:
The two fusions orientations were further tethered to chloroalkane-catalyst conjugates and compared for their capacity to drive bioluminescence-triggered photocatalytic protein labeling (FIG. 16B). […] Bioluminescence was induced upon treatment with 10× fluorofurimazine at a final concentration of 100 µM while control wells remained untreated. Following a 15 minutes incubation, samples were collected, resolved on SDS-PAGE, transferred to a nitrocellulose membrane, and analyzed as described in Example 1. […]
Reactions comprising 100 μM diazirine-biotin, 0.1 mg/mL K562 cell lysate depleted of biotinylated proteins, and 60 nM conjugate were assembled in TBS pH 7.5 within wells of a white 96-well plate. […] Following a 15 minutes incubation, samples were collected, resolved on SDS-PAGE, transferred to a nitrocellulose membrane, and analyzed as described in Example 1. […]
This example summarizes the optimization of the bioluminescent photocatalytic system that provided an overall 900-fold increase in bioluminescence-triggered photocatalytic protein labeling (FIG. 18). […] Following a 20-minutes incubation, samples were collected, resolved on SDS-PAGE, transferred to a nitrocellulose membrane, and analyzed as described in Example 1 (FIG. 18A). […]

The test system of a further data set is FKBP-HiBiT. Nature of the data set: Photocatalytic labeling upon complementation of FKBP-HiBiT with LgBiT-HaloTag:Ir-9049. Conditions: HEK293 cell lysate; LED, furimazine or fluorofurimazine. The class given is biochemical. As for the experimental part:
HEK293 cell lysate with estimated expression of 2000 nM FKBP-HiBiT was serially diluted into control HEK293 cell lysate to generate 4× lysate solutions with expression levels of 960 nM, 480 nM, 240 nM, and […] while maintaining constant concentration of total proteins. […] Following treatment with 10× diazirine-biotin at a final concentration of […], the UV-transparent plates were subjected to 455 nm radiation at 0-3.2 W for 15 min (Efficiency Aggregators biophotoreactor), and the white plate were further treated for 30 minutes with either furimazine or fluorofurimazine at a final concentration of 100 µM while control wells remained untreated. Samples were then collected, resolved on SDS-PAGE, transferred to a nitrocellulose membrane, and analyzed as described in Example 1. Light-dependent labeling of both LgBiT-HaloTag and FKBP-HiBiT were detected upon radiation or treatment with either furimazine or fluorofurimazine.
On the technique in general: HiBiT is a short tag that completes a luciferase, so light tracks the accessible tagged protein.

The test system of a further data set is DNA and RNA. Nature of the data set: LED-triggered singlet oxygen-dependent labeling of DNA and RNA. The class given is biochemical. The following applies: compared to Ir-9049 driven activation of vinyl-naphthyl-azides and vinyl-quinoline-azides.

The structures appear in SMILES notation. “And” between values parts separate entries of the source, which are not always exact repeats. Identical values can stand only once.

Procedure for DNA and RNA: Plates remained in the dark (control) or irradiated at 455 nm (2% LED; ˜1.6 W) for 20 minutes using Efficiency Aggregators biophotoreactor. To evaluate covalent crosslinking efficiencies, reactions were cleaned from non-crosslinked activatable labels using Zeba column (ThermoFisher) before being spotted on nitrocellulose membranes using a slot blot apparatus. Membranes were blocked with 5% BSA (Promega) in TBST for 1 hour at room temperature and then incubated overnight at 4° C. with anti-biotin antibody (Invitrogen) in TBST. Next day, membranes were washed three times with TBST and then incubated for an hour with a secondary anti-goat-HRP-antibody (Jackson laboratories). Following three washes in TBST, membranes were treated with ECL substrate (Promega) and scanned on the chemiluminescence channel to detect DNA or RNA labeled with biotin.

Take `[N-]=[N+]=Nc1ccc2cc(C(=O)NCCOCCOCCOCCOCCNC(=O)CCCC[C@@H]3SC[C@@H]4NC(=O)N[C@@H]43)ccc2c1` [Compound 9043]: the light-independent background entry in data set [1] is listed as “significantly decreased”. The “absorbance λmax” value in data set [2] (200 μM in 2% DMSO) is 255 nm and 305 nm. On to `Nc1cccc(-c2cn3c(=O)c(Cc4ccco4)nc-3c(Cc3ccccc3F)[nH]2)c1F` [fluorofurimazine], for which, in data set [3] (filtered luminescence 610 nm/LP accumulated over 20 minutes, versus furimazine), the “increase in total light output” value was 5 fold. The “increase in protein labeling” value in data set [3] (relative to preceding optimization step, 20 minutes) is recorded as 5 fold. Besides, the “labeling of LgBiT-HaloTag and FKBP-HiBiT” value with FKBP-HiBiT is on record as “Highest labeling”. As for `O=C(NCCOCCOCCCCCCCl)OCCOCCOCCOCCNC(=O)c1ccc2c(c1)C(=O)OC21c2ccc(O)c(Br)c2Oc2c1ccc(O)c2Br` [PS-9850], in the data set with DNA and RNA, the “nucleic acid labeling via singlet oxygen generation” value is “lower efficiencies”. On to `[N-]=[N+]=Nc1ccc(C(=O)NCCOCCOCCOCCOCCNC(=O)CCCC[C@@H]2SC[C@@H]3NC(=O)N[C@@H]32)cc1` [Compound 9069], for which the “labeling of proximal model protein and background” value in data set [1] (LED or bioluminescence, NanoLuc-HaloTag:Ir-9049 or HT178-cpNLuc-179:Ir-9049) was “relatively high background”. In the case of `C/C(=C\C(=O)NCCOCCOCCOCCOCCNC(=O)CCCC[C@@H]1SC[C@@H]2NC(=O)N[C@@H]21)c1ccc(N=[N+]=[N-])cc1` [Compound 9162], in data set [1], the light-independent background result was “significantly decreased” and the light-dependent background entry is on record as “highest light-dependent background”. In addition, the red shift absorbance in data set [2] (aryl-azide analogs compared to phenyl-azide-biotin 9069) worked out at 20 nm.

For the molecule `C/C(=C\C(=O)NCCOCCOCCOCCOCCNC(=O)CCCC[C@@H]1SC[C@@H]2NC(=O)N[C@@H]21)c1ccc(N=[N+]=[N-])c(C#N)c1` [Compound 9422, N-((E)-18-(4-azido-3-cyanophenyl)-16-oxo-3,6,9,12-tetraoxa-15-azanonadec-17-en-1-yl)-5-((3aS,4S,6aR)-2-oxohexahydro-1H-thieno[3,4-d]imidazol-4-yl)pentanamide], in data set [1], the light-independent background entry is recorded as “significantly decreased” and the light-dependent background result is on record as “significantly reduced light-dependent background”. Turning to `[N-]=[N+]=Nc1ccc(C(=O)NCCOCCOCCOCCOCCNC(=O)CCCC[C@@H]2SC[C@@H]3NC(=O)N[C@@H]32)c(O)c1` [Compound 9046], the light-independent background result in data set [1] is listed as “significantly decreased”.
